Reference: patent US12060347B2 (BRISTOL-MYERS SQUIBB COMPANY, priority 2016, dated 2024)

Target: T1, PAR1 (Homo sapiens, UniProt P25116)
T1 sequence (P25116 22-425): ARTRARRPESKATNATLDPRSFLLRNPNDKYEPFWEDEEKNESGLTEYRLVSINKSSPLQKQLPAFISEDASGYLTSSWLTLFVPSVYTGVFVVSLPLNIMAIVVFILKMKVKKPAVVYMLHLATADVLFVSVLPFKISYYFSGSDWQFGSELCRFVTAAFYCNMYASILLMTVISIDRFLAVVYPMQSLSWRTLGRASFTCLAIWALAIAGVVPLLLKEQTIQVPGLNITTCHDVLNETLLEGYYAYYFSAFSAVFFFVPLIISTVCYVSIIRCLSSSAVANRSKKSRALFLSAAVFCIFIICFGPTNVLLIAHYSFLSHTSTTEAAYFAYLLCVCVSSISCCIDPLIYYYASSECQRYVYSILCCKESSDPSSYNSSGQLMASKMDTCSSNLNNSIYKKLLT
Test: not given
Settings: ACS patients, TRACER phase III trial; cited from earlier work

In the case of `CCOC(=O)N[C@@H]1CC[C@@H]2[C@@H](C1)C[C@H]1C(=O)O[C@H](C)[C@H]1[C@H]2/C=C/c1ccc(-c2cccc(F)c2)cn1` [vorapaxar], the cardiovascular events is given as “did not significantly reduce”.

For `CCOC(=O)N[C@@H]1CC[C@@H]2[C@@H](C1)C[C@H]1C(=O)O[C@H](C)[C@H]1[C@H]2/C=C/c1ccc(-c2cccc(F)c2)cn1` [vorapaxar], the “risk of major bleeding” value is listed as “significantly increased”.

Target: T2, protease-activated receptor type 4 (PAR4) (Homo sapiens, UniProt Q96RI0)
T2 sequence (Q96RI0 18-385): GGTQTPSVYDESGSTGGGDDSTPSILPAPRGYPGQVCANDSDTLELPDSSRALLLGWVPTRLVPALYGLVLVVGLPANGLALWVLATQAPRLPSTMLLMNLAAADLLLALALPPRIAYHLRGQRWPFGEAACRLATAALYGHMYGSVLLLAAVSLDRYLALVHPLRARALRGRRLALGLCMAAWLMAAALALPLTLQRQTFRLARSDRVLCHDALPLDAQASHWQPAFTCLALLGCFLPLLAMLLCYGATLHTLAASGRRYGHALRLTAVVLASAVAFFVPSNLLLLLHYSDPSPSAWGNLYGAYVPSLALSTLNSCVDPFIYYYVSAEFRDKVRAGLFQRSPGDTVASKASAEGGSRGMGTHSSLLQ
Test: not given
Settings: abstract of Lee et al. 2001; cited from earlier work

For `CCOC(=O)c1ccc(-c2nn(Cc3ccccc3)c3ccccc23)cc1` [YD-3, ethyl 4-(1-benzyl-1H-indazol-3-yl)benzoate], the “inhibition of PAR4-dependent platelet activation” value is listed as “selective and potent inhibitor”.

Target: T3, human PAR4 (Homo sapiens, UniProt Q96RI0)
T3 construct: expressed in transfected cells; host or cells: HEK293 PAR4 Clone 1.2A (BMS Arctic ID 383940)
T3 sequence (Q96RI0 18-385): T2 sequence (Q96RI0 18-385)
Test: PAR4 FLIPR assay: antagonism of agonist-peptide-induced calcium mobilization in PAR4-expressing HEK293 cells
Type: cell-based
Settings: H-Ala-Phe(4-F)-[…]NH2-induced intracellular calcium mobilization, 11-point curves

In order of falling IC50:
1. COc1cc(C)c2nc(-c3cc(Cl)cc4nc(OC)cnc34)sc2c1 [Example 837, 2-(7-chloro-2-methoxyquinoxalin-5-yl)-6-methoxy-4-methylbenzo[d]thiazole]  17 nM
2. Cc1cc(-c2nc3cc(F)c(O[C@@H](C)[C@@H](C)OC(=O)Nc4cnc(C)nc4)cc3s2)c2ncc(OCC(F)F)nc2c1 [Example 827, (2R,3S)-3-((2-(2-(2,2-difluoroethoxy)-7-methylquinoxalin-5-yl)-5-fluorobenzo[d]thiazol-6-yl)oxy)butan-2-yl (2-methylpyrimidin-5-yl)carbamate]  6.2 nM
3. COc1cnc2c(-c3nc4cc(F)c(O[C@@H](C)[C@@H](C)OC(=O)Nc5ccc(C(=O)N(C)C)nc5)cc4s3)cc(Cl)cc2n1 [Example 834, (2R,3S)-3-((2-(7-chloro-2-methoxyquinoxalin-5-yl)-5-fluorobenzo[d]thiazol-6-yl)oxy)butan-2-yl (6-(dimethylcarbamoyl)pyridin-3-yl)carbamate]  3 nM
4. CNC(=O)c1ccc(NC(=O)O[C@H](C)[C@H](C)Oc2cc3sc(-c4cc(Cl)cc5nc(OC)cnc45)nc3cc2F)cn1 [Example 832, (2R,3S)-3-((2-(7-chloro-2-methoxyquinoxalin-5-yl)-5-fluorobenzo[d]thiazol-6-yl)oxy)butan-2-yl (6-(methylcarbamoyl)pyridin-3-yl)carbamate]  2.5 nM
5. COc1cnc2c(-c3nc4cc(F)c(O[C@@H](C)[C@@H](C)OC(=O)Nc5ccc(CO)nc5)cc4s3)cc(Cl)cc2n1 [Example 831, (2R,3S)-3-((2-(7-chloro-2-methoxyquinoxalin-5-yl)-5-fluorobenzo[d]thiazol-6-yl)oxy)butan-2-yl (6-(hydroxymethyl)pyridin-3-yl)carbamate]  2.2 nM
6. COc1cnc2c(-c3nc4cc(F)c(O[C@@H](C)[C@@H](C)OC(=O)Nc5cncc(C#N)c5)cc4s3)cc(Cl)cc2n1 [Example 826, (2R,3S)-3-((2-(7-chloro-2-methoxyquinoxalin-5-yl)-5-fluorobenzo[d]thiazol-6-yl)oxy)butan-2-yl (5-cyanopyridin-3-yl)carbamate]  1.9 nM
7. COC(=O)c1ccc(NC(=O)O[C@H](C)[C@H](C)Oc2cc3sc(-c4cc(Cl)cc5nc(OC)cnc45)nc3cc2F)cn1 [Example 830, methyl 5-(((((2R,3S)-3-((2-(7-chloro-2-methoxyquinoxalin-5-yl)-5-fluorobenzo[d]thiazol-6-yl)oxy)butan-2-yl)oxy)carbonyl)amino)picolinate]  1.6 nM
8. COc1cnc2c(-c3nc4cc(F)c(O[C@@H](C)[C@@H](C)OC(=O)Nc5ccc(C(N)=O)nc5)cc4s3)cc(Cl)cc2n1 [Example 833, (2R,3S)-3-((2-(7-chloro-2-methoxyquinoxalin-5-yl)-5-fluorobenzo[d]thiazol-6-yl)oxy) butan-2-yl (6-carbamoylpyridin-3-yl)carbamate]  1.6 nM
9. COc1cnc2c(-c3nc4cc(F)c(O[C@@H](C)[C@@H](C)OC(=O)Nc5ccc(CCO)nc5)cc4s3)cc(Cl)cc2n1 [Example 836, (2R,3S)-3-((2-(7-chloro-2-methoxyquinoxalin-5-yl)-5-fluorobenzo[d]thiazol-6-yl)oxy)butan-2-yl (6-(2-hydroxyethyl)pyridin-3-yl)carbamate]  1.2 nM
10. COc1cnc2c(-c3nc4cc(F)c(O[C@@H](C)[C@@H](C)OC(=O)Nc5ccc(C#N)nc5)cc4s3)cc(C#N)cc2n1 [Example 828, (2R,3S)-3-((2-(7-cyano-2-methoxyquinoxalin-5-yl)-5-fluorobenzo[d]thiazol-6-yl)oxy)butan-2-yl (6-cyanopyridin-3-yl)carbamate]  0.7 nM
11. COc1cnc2c(-c3nc4cc(F)c(O[C@@H](C)[C@@H](C)OC(=O)Nc5ccc(C#N)nc5)cc4s3)cc(Cl)cc2n1 [Example 829, (2R,3S)-3-((2-(7-chloro-2-methoxyquinoxalin-5-yl)-5-fluorobenzo[d]thiazol-6-yl)oxy)butan-2-yl (6-cyanopyridin-3-yl)carbamate]  0.6 nM
12. COc1cnc2c(-c3nc4cc(F)c(O[C@@H](C)[C@@H](C)OC(=O)Nc5ccc(CC(C)(C)O)nc5)cc4s3)cc(Cl)cc2n1 [Example 835, (2R,3S)-3-((2-(7-chloro-2-methoxyquinoxalin-5-yl)-5-fluorobenzo[d]thiazol-6-yl)oxy)butan-2-yl (6-(2-hydroxy-2-methylpropyl)pyridin-3-yl)carbamate]  0.5 nM
